Data taken from US9346809B2 (LEO PHARMA A/S, priority 2009, dated 2016).

Columns and labels:
Type in all cases: biochemical
[1] = target: T1, TYK2 (aa 871-1187, catalytic domain, GST-tag) (Homo sapiens, UniProt P29597); assay: JAK kinase assay (HTRF, phosphorylation of TK substrate-biotin), TYK2; settings: ATP at Km (13 μM); read-out: TYK2 kinase inhibitory activity (EC50 indicator)
T1 construct: JAK1 (aa 850-1154) and TYK2 (aa 871-1187) are expressed with an N-terminally fused GST-tag; GST (N); purchased Carna Biosciences, Inc; host or cells: baculovirus expression system
T1 sequence (P29597 871-1187): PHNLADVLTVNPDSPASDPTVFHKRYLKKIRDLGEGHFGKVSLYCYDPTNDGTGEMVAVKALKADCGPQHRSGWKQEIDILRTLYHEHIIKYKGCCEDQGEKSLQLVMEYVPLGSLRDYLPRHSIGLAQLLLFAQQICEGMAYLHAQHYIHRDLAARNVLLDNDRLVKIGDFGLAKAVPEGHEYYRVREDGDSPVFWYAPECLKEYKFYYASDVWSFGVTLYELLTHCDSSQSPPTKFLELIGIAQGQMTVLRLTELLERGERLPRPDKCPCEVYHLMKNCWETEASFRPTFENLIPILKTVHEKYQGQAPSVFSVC
How it was run: (§1)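 EC50 values come from HTRF signal of phospho-peptide detected by STK Ab Cryptate and Streptavidin-XL665 after overnight incubation. Reactions ran 20-30 min at RT in Hepes pH 7.0, 0.01% BSA, 1 mM DTT, with ATP at Km: 7, 4, 2 and 13 μM for JAK1, JAK2, JAK3, TYK2.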

[2] = target: T2, JAK3 (catalytic domain, His-tag) (Homo sapiens, UniProt P52333); assay: JAK kinase assay (HTRF, phosphorylation of TK substrate-biotin), JAK3; settings: ATP at Km (2 μM); read-out: JAK3 kinase inhibitory activity (EC50 indicator)
T2 construct: All four purified enzymes contain only the catalytic domain; His (N); purchased Carna Biosciences, Inc; host or cells: baculovirus expression system
How it was run: as §1

[3] = target: T3, JAK1 (aa 850-1154, catalytic domain, GST-tag) (Homo sapiens, UniProt P23458); assay: JAK kinase assay (HTRF, phosphorylation of TK substrate-biotin), JAK1; settings: ATP at Km (7 μM); read-out: JAK1 kinase inhibitory activity (EC50 indicator)
T3 construct: JAK1 (aa 850-1154) and TYK2 (aa 871-1187) are expressed with an N-terminally fused GST-tag; GST (N); purchased Carna Biosciences, Inc; host or cells: baculovirus expression system
How it was run: as §1

[4] = target: T4, JAK2 (catalytic domain, His-tag) (Homo sapiens, UniProt O60674); assay: JAK kinase assay (HTRF, phosphorylation of TK substrate-biotin), JAK2; settings: ATP at Km (4 μM); read-out: JAK2 kinase inhibitory activity (EC50 indicator)
T4 construct: All four purified enzymes contain only the catalytic domain; His (N); purchased Carna Biosciences, Inc; host or cells: baculovirus expression system
How it was run: as §1

T4 sequence (O60674 849-1124 limits assumed): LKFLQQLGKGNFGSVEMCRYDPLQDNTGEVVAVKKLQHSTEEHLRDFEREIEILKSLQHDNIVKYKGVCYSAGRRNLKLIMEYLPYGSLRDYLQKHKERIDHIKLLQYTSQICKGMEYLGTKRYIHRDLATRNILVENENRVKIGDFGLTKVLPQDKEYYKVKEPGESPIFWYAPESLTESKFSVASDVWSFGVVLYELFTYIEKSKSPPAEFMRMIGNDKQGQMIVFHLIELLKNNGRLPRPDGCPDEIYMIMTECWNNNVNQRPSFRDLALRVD
T3 sequence (P23458 850-1154): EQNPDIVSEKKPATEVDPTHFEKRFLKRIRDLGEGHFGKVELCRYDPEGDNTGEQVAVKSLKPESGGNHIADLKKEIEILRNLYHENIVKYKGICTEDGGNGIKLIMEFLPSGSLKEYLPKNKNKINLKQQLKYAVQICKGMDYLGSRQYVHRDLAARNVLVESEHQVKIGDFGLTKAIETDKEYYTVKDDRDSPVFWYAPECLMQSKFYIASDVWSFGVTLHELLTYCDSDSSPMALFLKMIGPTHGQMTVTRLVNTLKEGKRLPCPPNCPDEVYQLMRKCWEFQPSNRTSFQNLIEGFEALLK
T2 sequence (P52333 822-1111 limits assumed): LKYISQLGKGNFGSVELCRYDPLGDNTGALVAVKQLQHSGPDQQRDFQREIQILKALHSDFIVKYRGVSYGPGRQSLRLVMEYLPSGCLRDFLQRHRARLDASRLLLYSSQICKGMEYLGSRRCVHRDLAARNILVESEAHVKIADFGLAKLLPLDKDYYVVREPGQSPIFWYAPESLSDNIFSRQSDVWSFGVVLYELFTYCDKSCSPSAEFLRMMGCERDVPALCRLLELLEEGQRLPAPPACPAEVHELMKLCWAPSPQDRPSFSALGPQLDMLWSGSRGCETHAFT

SMILES | EC50 [1] [nM] | EC50 [2] [nM] | EC50 [3] [nM] | EC50 [4] [nM]
N#Cc1ccc(C(F)(F)C(=O)N2CCN(c3ncnc4[nH]ccc34)CC23CC3)cc1 [Example 64, 4-{1,1-Difluoro-2-oxo-2-[7-(7H-pyrrolo[2,3-d]pyrimidin-4-yl)-4,7-diaza-spiro[2.5]oct-4-yl]-ethyl}-benzonitrile] | > 500 | 100 to 500 | < 100 | < 100
N#CCOc1cccc(C(=O)N2CCN(c3ncnc4[nH]ccc34)CC23CC3)c1 [Example 67, {3-[7-(7H-Pyrrolo[2,3-d]pyrimidin-4-yl)-4,7-diaza-spiro[2.5]octane-4-carbonyl]-phenoxy}-acetonitrile] | 100 to 500 | 100 to 500 | < 100 | < 100
N#Cc1ccc(C(=O)N2[C@@H]3CC[C@H]2CN(c2ncnc4[nH]ccc24)C3)s1 [Example 71, 5-[3-(7H-Pyrrolo[2,3-d]pyrimidin-4-yl)-3,8-diaza-bicyclo[3.2.1]octane-8-carbonyl]-thiophene-2-carbonitrile] | 100 to 500 | < 100 | < 100 | < 100
Cc1nccnc1C(=O)N1[C@@H]2CC[C@H]1CN(c1ncnc3[nH]ccc13)C2 [Example 72, (3-Methyl-pyrazin-2-yl)-[3-(7H-pyrrolo[2,3-d]pyrimidin-4-yl)-3,8-diaza-bicyclo[3.2.1]oct-8-yl]-methanone] | > 500 | 100 to 500 | 100 to 500 | < 100
Cc1cncc(C(=O)N2[C@@H]3CC[C@H]2CN(c2ncnc4[nH]ccc24)C3)n1 [Example 73, (6-Methyl-pyrazin-2-yl)-[3-(7H-pyrrolo[2,3-d]pyrimidin-4-yl)-3,8-diaza-bicyclo[3.2.1]oct-8-yl]-methanone] | > 500 | 100 to 500 | < 100 | 100 to 500
Cc1cnc(C(=O)N2[C@@H]3CC[C@H]2CN(c2ncnc4[nH]ccc24)C3)cn1 [Example 74, (5-Methyl-pyrazin-2-yl)-[3-(7H-pyrrolo[2,3-d]pyrimidin-4-yl)-3,8-diaza-bicyclo[3.2.1]oct-8-yl]-methanone] | > 500 | > 500 | 100 to 500 | 100 to 500
O=C(c1cc2ccccc2s1)N1CCN(c2ncnc3[nH]ccc23)CC12CCCC2 [Example 75, Benzo[b]thiophen-2-yl-[9-(7H-pyrrolo[2,3-d]pyrimidin-4-yl)-6,9-diaza-spiro[4.5]dec-6-yl]-methanone] | > 500 | > 500 | > 500 | > 500
N#Cc1cccc(CS(=O)(=O)N2CCN(c3ncnc4[nH]ccc34)CC23CC3)c1 [Example 76, 3-[7-(7H-Pyrrolo[2,3-d]pyrimidin-4-yl)-4,7-diaza-spiro[2.5]octane-4-sulfonylmethyl]-benzonitrile] | > 500 | 100 to 500 | < 100 | < 100
N#Cc1cccc(CS(=O)(=O)N2[C@@H]3CC[C@H]2CN(c2ncnc4[nH]ccc24)C3)c1 [Example 77, 3-[3-(7H-Pyrrolo[2,3-d]pyrimidin-4-yl)-3,8-diaza-bicyclo[3.2.1]octane-8-sulfonylmethyl]-benzonitrile] | > 500 | 100 to 500 | < 100 | < 100

More lines, now with the values ahead:

EC50 [1] [nM] | EC50 [2] [nM] | EC50 [3] [nM] | EC50 [4] [nM] | SMILES
< 100 | < 100 | < 100 | < 100 | O=C(c1cc2c(s1)CCC2)N1CCN(c2ncnc3[nH]ccc23)CC12CC2 [Example 61, (5,6-Dihydro-4H-cyclopenta[b]thiophen-2-yl)[7-(7H-pyrrolo[2,3-d]pyrimidin-4-yl)-4,7-diaza-spiro[2.5]oct-4-yl]-methanone]
< 100 | < 100 | < 100 | < 100 | Cc1csc(C(=O)N2CCN(c3ncnc4[nH]ccc34)CC23CC3)c1 [Example 62, (4-Methyl-thiophen-2-yl)-[7-(7H-pyrrolo[2,3-d]pyrimidin-4-yl)-4,7-diaza-spiro[2.5]oct-4-yl]-methanone]
< 100 | < 100 | < 100 | < 100 | NS(=O)(=O)c1ccc(C(=O)C(=O)N2CCN(c3ncnc4[nH]ccc34)CC23CC3)cc1 [Example 63, 4-{2-Oxo-2-[7-(7H-pyrrolo[2,3-d]pyrimidin-4-yl)-4,7-diaza-spiro[2.5]oct-4-yl]-acetyl}-benzenesulfonamide]
> 500 | 100 to 500 | 100 to 500 | < 100 | N#Cc1ccc(C(F)(F)C(=O)N2[C@@H]3CC[C@H]2CN(c2ncnc4[nH]ccc24)C3)cc1 [Example 65, 4-{1,1-Difluoro-2-oxo-2-[3-(7H-pyrrolo[2,3-d]pyrimidin-4-yl)-3,8-diaza-bicyclo[3.2.1]oct-8-yl]-ethyl}-benzonitrile]
> 500 | 100 to 500 | < 100 | < 100 | N#Cc1cc(CC(=O)N2CCN(c3ncnc4[nH]ccc34)CC23CC3)ccc1F [Example 66, 2-Fluoro-5-{2-oxo-2-[7-(7H-pyrrolo[2,3-d]pyrimidin-4-yl)-4,7-diaza-spiro[2.5]oct-4-yl]-ethyl}-benzonitrile]
100 to 500 | 100 to 500 | < 100 | < 100 | N#CCOc1ccc(C(=O)N2CCN(c3ncnc4[nH]ccc34)CC23CC3)cc1 [Example 68, {4-[7-(7H-Pyrrolo[2,3-d]pyrimidin-4-yl)-4,7-diaza-spiro[2.5]octane-4-carbonyl]-phenoxy}-acetonitrile]
> 500 | < 100 | < 100 | < 100 | N#CCOc1ccc(CC(=O)N2CCN(c3ncnc4[nH]ccc34)CC23CC3)cc1 [Example 69, (4-{2-Oxo-2-[7-(7H-pyrrolo[2,3-d]pyrimidin-4-yl)-4,7-diaza-spiro[2.5]oct-4-yl]-ethyl}-phenoxy)-acetonitrile]
> 500 | 100 to 500 | 100 to 500 | 100 to 500 | N#CCOc1cccc(CC(=O)N2CCN(c3ncnc4[nH]ccc34)CC23CC3)c1 [Example 70, (3-{2-Oxo-2-[7-(7H-pyrrolo[2,3-d]pyrimidin-4-yl)-4,7-diaza-spiro[2.5]oct-4-yl]-ethyl}-phenoxy)-acetonitrile]
> 500 | 100 to 500 | < 100 | 100 to 500 | N#Cc1ccc(CS(=O)(=O)N2[C@@H]3CC[C@H]2CN(c2ncnc4[nH]ccc24)C3)cc1 [Example 78, 4-[3-(7H-Pyrrolo[2,3-d]pyrimidin-4-yl)-3,8-diaza-bicyclo[3.2.1]octane-8-sulfonylmethyl]-benzonitrile]
> 500 | 100 to 500 | < 100 | < 100 | N#Cc1ccc(CS(=O)(=O)N2CCN(c3ncnc4[nH]ccc34)CC23CC3)cc1 [Example 79, 4-[7-(7H-Pyrrolo[2,3-d]pyrimidin-4-yl)-4,7-diaza-spiro[2.5]octane-4-sulfonylmethyl]-benzonitrile]
> 500 | > 500 | 100 to 500 | 100 to 500 | O=C(c1cc2ccccc2s1)N1CCN(c2ccnc3[nH]ccc23)CC12CC2 [Example 82, Benzo[b]thiophen-2-yl-[7-(1H-pyrrolo[2,3-b]pyridin-4-yl)-4,7-diaza-spiro[2.5]oct-4-yl]-methanone]
